Reference: patent publication US12366572B2, “Activation of bioluminescence by structural complementation” (Promega Corporation, priority 2013, dated 2025)

Biological target: NLpoly 11S (Oplophorus gracilirostris, UniProt Q9GV45, A31E/A60N/A81I/D135N/F58L/F95D/G184S/G42A/G62A/G78A/G94A/G98A/H120P/I103V/I117V/I134L/K70R/L176M/L26M/L54V/L73R/L99Q/M102E/N171T/P142E/Q151K/Q38E/Q45L/T27V/V71I/Y165I)
Test: biochemical
Type: binding

Sequence of NLpoly 11S (Q9GV45 26-184 with the stated changes limits assumed): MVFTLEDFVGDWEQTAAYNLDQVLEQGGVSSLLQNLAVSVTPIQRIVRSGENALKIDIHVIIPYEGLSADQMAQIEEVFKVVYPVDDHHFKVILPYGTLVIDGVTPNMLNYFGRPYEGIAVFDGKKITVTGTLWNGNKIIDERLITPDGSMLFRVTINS

CC[C@H](C)[C@H](NC(=O)[C@H](CCCCN)NC(=O)[C@H](CCC(=O)O)NC(=O)[C@H](Cc1ccccc1)NC(=O)[C@H](CC(C)C)NC(=O)[C@H](CCCNC(=N)N)NC(=O)[C@H](Cc1ccc(O)cc1)NC(=O)CNC(=O)[C@@H](NC(=O)[C@@H](NC(C)=O)C(C)C)[C@@H](C)O)C(=O)N[C@@H](CO)C(N)=O [array2.19, VTGYRLFEKIS]
Kd: 0.605 µM

Ac-VEGYRLFEEAS-NH2 [array2.80, VEGYRLFEEAS]
Kd: 1420 µM

Ac-VEGYRLFEKAL-NH2 [array2.101, VEGYRLFEKAL]
Kd: 12.6 µM

Ac-VEGYRLFEKAS-NH2 [array2.74, VEGYRLFEKAS]
Kd: 4.14 µM

Ac-VEGYRLFEKEL-NH2 [array2.102, VEGYRLFEKEL]
Kd: 5.79 µM

Ac-VEGYRLFEKES-NH2 [array2.75, VEGYRLFEKES]
Kd: 2.97 µM

Ac-VEGYRLFEKIL-NH2 [array2.100, VEGYRLFEKIL]
Kd: 10.6 µM

Ac-VEGYRLFEKIS-NH2 [array2.73, VEGYRLFEKIS]
Kd: 2.15 µM

Ac-VEGYRLFEQAL-NH2 [array2.104, VEGYRLFEQAL]
Kd: 336 µM

Ac-VEGYRLFEQAS-NH2 [array2.77, VEGYRLFEQAS]
Kd: 48.3 µM

Ac-VEGYRLFEQES-NH2 [array2.78, VEGYRLFEQES]
Kd: 252 µM

Ac-VEGYRLFEQIS-NH2 [array2.76, VEGYRLFEQIS]
Kd: 52.8 µM

Ac-VEGYRLFKEAL-NH2 [array2.89, VEGYRLFKEAL]
Kd: 42.4 µM

Ac-VEGYRLFKEAS-NH2 [array2.62, VEGYRLFKEAS]
Kd: 22.1 µM

Ac-VEGYRLFKEEL-NH2 [array2.90, VEGYRLFKEEL]
Kd: 101 µM

Ac-VEGYRLFKEES-NH2 [array2.63, VEGYRLFKEES]
Kd: 220 µM

Ac-VEGYRLFKEIL-NH2 [array2.88, VEGYRLFKEIL]
Kd: 17.8 µM

Ac-VEGYRLFKEIS-NH2 [array2.61, VEGYRLFKEIS]
Kd: 14.4 µM

Ac-VEGYRLFKKAL-NH2 [array2.83, VEGYRLFKKAL]
Kd: 1.59 µM

Ac-VEGYRLFKKAS-NH2 [array2.56, VEGYRLFKKAS]
Kd: 0.641 µM

Ac-VEGYRLFKKEL-NH2 [array2.84, VEGYRLFKKEL]
Kd: 1.41 µM

Ac-VEGYRLFKKES-NH2 [array2.57, VEGYRLFKKES]
Kd: 0.891 µM

Ac-VEGYRLFKKIL-NH2 [array2.82, VEGYRLFKKIL]
Kd: 0.563 µM

Ac-VEGYRLFKKIS-NH2 [array2.55, VEGYRLFKKIS]
Kd: 0.078 µM

Ac-VEGYRLFKQAL-NH2 [array2.86, VEGYRLFKQAL]
Kd: 2.27 µM

Ac-VEGYRLFKQAS-NH2 [array2.59, VEGYRLFKQAS]
Kd: 2.09 µM

Ac-VEGYRLFKQEL-NH2 [array2.87, VEGYRLFKQEL]
Kd: 12.6 µM

Ac-VEGYRLFKQIL-NH2 [array2.85, VEGYRLFKQIL]
Kd: 10.3 µM

Ac-VEGYRLFKQIS-NH2 [array2.58, VEGYRLFKQIS]
Kd: 2.09 µM

Ac-VEGYRLFQEAL-NH2 [array2.98, VEGYRLFQEAL]
Kd: 99.9 µM

Ac-VEGYRLFQEAS-NH2 [array2.71, VEGYRLFQEAS]
Kd: 24 µM

Ac-VEGYRLFQEIS-NH2 [array2.70, VEGYRLFQEIS]
Kd: 230 µM

Ac-VEGYRLFQKAL-NH2 [array2.92, VEGYRLFQKAL]
Kd: 2.02 µM

Ac-VEGYRLFQKAS-NH2 [array2.65, VEGYRLFQKAS]
Kd: 1.93 µM

Ac-VEGYRLFQKEL-NH2 [array2.93, VEGYRLFQKEL]
Kd: 1.69 µM

Ac-VEGYRLFQKES-NH2 [array2.66, VEGYRLFQKES]
Kd: 2.87 µM

Ac-VEGYRLFQKIL-NH2 [array2.91, VEGYRLFQKIL]
Kd: 2.08 µM

Ac-VEGYRLFQKIS-NH2 [array2.64, VEGYRLFQKIS]
Kd: 0.586 µM

Ac-VEGYRLFQQAL-NH2 [array2.95, VEGYRLFQQAL]
Kd: 18.8 µM

Ac-VEGYRLFQQAS-NH2 [array2.68, VEGYRLFQQAS]
Kd: 20 µM

Ac-VEGYRLFQQEL-NH2 [array2.96, VEGYRLFQQEL]
Kd: 99.4 µM

Ac-VEGYRLFQQIL-NH2 [array2.94, VEGYRLFQQIL]
Kd: 9.39 µM

Ac-VEGYRLFQQIS-NH2 [array2.67, VEGYRLFQQIS]
Kd: 8.14 µM

Ac-VTGYRLFEEEL-NH2 [array2.54, VTGYRLFEEEL]
Kd: 68.3 µM

Ac-VTGYRLFEEIL-NH2 [array2.52, VTGYRLFEEIL]
Kd: 104 µM

Ac-VTGYRLFEKAL-NH2 [array2.47, VTGYRLFEKAL]
Kd: 1.81 µM

Ac-VTGYRLFEKAS-NH2 [array2.20, VTGYRLFEKAS]
Kd: 1.79 µM

Ac-VTGYRLFEKEL-NH2 [array2.48, VTGYRLFEKEL]
Kd: 2.44 µM

Ac-VTGYRLFEKIL-NH2 [array2.46, VTGYRLFEKIL]
Kd: 1.92 µM

Ac-VTGYRLFEQAL-NH2 [array2.50, VTGYRLFEQAL]
Kd: 40.4 µM

Ac-VTGYRLFEQAS-NH2 [array2.23, VTGYRLFEQAS]
Kd: 4.17 µM

Ac-VTGYRLFEQEL-NH2 [array2.51, VTGYRLFEQEL]
Kd: 85 µM

Ac-VTGYRLFEQES-NH2 [array2.24, VTGYRLFEQES]
Kd: 7.83 µM

Ac-VTGYRLFEQIL-NH2 [array2.49, VTGYRLFEQIL]
Kd: 124 µM

Ac-VTGYRLFEQIS-NH2 [array2.22, VTGYRLFEQIS]
Kd: 10.8 µM

Ac-VTGYRLFKEAL-NH2 [array2.35, VTGYRLFKEAL]
Kd: 5.15 µM

Ac-VTGYRLFKEAS-NH2 [array2.8, VTGYRLFKEAS]
Kd: 2.57 µM

Ac-VTGYRLFKEEL-NH2 [array2.36, VTGYRLFKEEL]
Kd: 7.78 µM

Ac-VTGYRLFKEES-NH2 [array2.9, VTGYRLFKEES]
Kd: 3.86 µM

Ac-VTGYRLFKEIL-NH2 [array2.34, VTGYRLFKEIL]
Kd: 4.41 µM

Ac-VTGYRLFKEIS-NH2 [array2.7, VTGYRLFKEIS]
Kd: 4.44 µM

Ac-VTGYRLFKKAL-NH2 [array2.29, VTGYRLFKKAL]
Kd: 0.275 µM

Ac-VTGYRLFKKAS-NH2 [array2.2, VTGYRLFKKAS]
Kd: 0.241 µM

Ac-VTGYRLFKKEL-NH2 [array2.30, VTGYRLFKKEL]
Kd: 0.671 µM

Ac-VTGYRLFKKES-NH2 [array2.3, VTGYRLFKKES]
Kd: 0.773 µM

Ac-VTGYRLFKKIL-NH2 [array2.28, VTGYRLFKKIL]
Kd: 0.0766 µM

Ac-VTGYRLFKKIS-NH2 [array2.1, VTGYRLFKKIS]
Kd: 0.0133 µM

Ac-VTGYRLFKQAL-NH2 [array2.32, VTGYRLFKQAL]
Kd: 3.56 µM

Ac-VTGYRLFKQAS-NH2 [array2.5, VTGYRLFKQAS]
Kd: 1.95 µM

Ac-VTGYRLFKQEL-NH2 [array2.33, VTGYRLFKQEL]
Kd: 1.95 µM

Ac-VTGYRLFKQES-NH2 [array2.6, VTGYRLFKQES]
Kd: 1.35 µM

Ac-VTGYRLFKQIL-NH2 [array2.31, VTGYRLFKQIL]
Kd: 2.99 µM

Ac-VTGYRLFKQIS-NH2 [array2.4, VTGYRLFKQIS]
Kd: 0.746 µM

Ac-VTGYRLFQEAL-NH2 [array2.44, VTGYRLFQEAL]
Kd: 16 µM

Ac-VTGYRLFQEEL-NH2 [array2.45, VTGYRLFQEEL]
Kd: 35.4 µM

Ac-VTGYRLFQEES-NH2 [array2.18, VTGYRLFQEES]
Kd: 67.3 µM

Ac-VTGYRLFQEIL-NH2 [array2.43, VTGYRLFQEIL]
Kd: 17.3 µM

Ac-VTGYRLFQEIS-NH2 [array2.16, VTGYRLFQEIS]
Kd: 2.56 µM

Ac-VTGYRLFQKAL-NH2 [array2.38, VTGYRLFQKAL]
Kd: 0.975 µM

Ac-VTGYRLFQKAS-NH2 [array2.11, VTGYRLFQKAS]
Kd: 0.748 µM

Ac-VTGYRLFQKEL-NH2 [array2.39, VTGYRLFQKEL]
Kd: 2.48 µM

Ac-VTGYRLFQKES-NH2 [array2.12, VTGYRLFQKES]
Kd: 0.417 µM

Ac-VTGYRLFQKIL-NH2 [array2.37, VTGYRLFQKIL]
Kd: 0.362 µM

Ac-VTGYRLFQKIS-NH2 [array2.10, VTGYRLFQKIS]
Kd: 0.0812 µM

Ac-VTGYRLFQQAS-NH2 [array2.14, VTGYRLFQQAS]
Kd: 1.11 µM

Ac-VTGYRLFQQEL-NH2 [array2.42, VTGYRLFQQEL]
Kd: 19 µM

Ac-VTGYRLFQQES-NH2 [array2.15, VTGYRLFQQES]
Kd: 7.49 µM

Ac-VTGYRLFQQIL-NH2 [array2.40, VTGYRLFQQIL]
Kd: 122 µM

Ac-VTGYRLFQQIS-NH2 [array2.13, VTGYRLFQQIS]
Kd: 0.876 µM
